Measurements as given in US20150010928A1, “MEANS AND METHODS FOR ASSESSING AN ENDOCRINE DISEASE OR DISORDER” (priority 2012, published 2015).
Marks after values point to notes of the source that are not given here.

Test system: male rats
Experiment: Plasma metabolite profiling (GC-MS, LC-MS, SPE-LC-MS) in male rats dosed once daily over 28 days (OECD 407)
Assay type: in vivo, rat
Conditions: high dose; for Mannose / Glycochenodeoxycholic acid: Table 15c; for Alanine, ratio versus control / Androstenedione, ratio versus control / Glycine, ratio versus control / Heptadecanoic acid (C17:0), ratio versus control / Testosterone, ratio versus control / Threonine, ratio versus control / Uric acid, ratio versus control / alpha-Tocopherol, ratio versus control / Cholesterol, ratio versus control: male rats, plasma
Outline: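 Metabolites were measured by GC-MS (derivatised) and reversed-phase LC-MS, with steroids by online SPE-LC-MS, in plasma drawn from fasted rats on days 7, 14 and 28 of once-daily dosing (5/sex/group). Values are ratios versus sex-matched untreated controls, normalized to pool samples, with Welch-test p-values.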

## C[C@]12C=CC3=C4CCC(=O)C=C4CCC3C1CC[C@@H]2O (some centres unmarked) [Trenbolone]
m7, male rats
  Mannose: 1.35 *
m7, male rats, Table 16
  3,4-Dihydroxyphenylacetic acid (DOPAC): 1.08
  3,4-Dihydroxyphenylglycol (DOPEG): 1.12
  Androstenedione: 0.09 *
  Citrate: 0.89 *
  Glycerol, polar fraction: 0.66 *
  Histamine: 1.35
  Ketoleucine: 0.93
  Lactate: 0.68 *
  Metanephrine: 0.86
  Pantothenic acid: 0.65 *
  Phosphatidylcholine (C18:1,C18:2): 0.76 *
  Phosphatidylcholine No 04: 0.44 *
  TAG (C18:1,C18:2): 0.77 *
  Testosterone: 0.1 *
  Tyrosine: 0.93 *
m7, male rats, Table 15d
  3,4-Dihydroxyphenylacetic acid (DOPAC): 1.08
  18-Hydroxy-11-deoxycorticosterone: 0.4
  Glycerol phosphate, lipid fraction: 0.26 *
  Homovanillic acid (HVA): 0.6 *
  Kynurenic acid: 0.66 *
  Lysophosphatidylcholine (C18:1): 0.89 *
  Lysophosphatidylethanolamine (C22:5): 0.75 *
  Phosphate, lipid fraction: 0.47 *
  Phosphatidylcholine (C18:0,C18:1): 0.62 *
  Sphingomyelin (d18:1, C16:0): 0.23 *
  Sphingomyelin (d18:1,C23:0): 0.25 *
  Sphingomyelin (d18:1,C24:0): 0.37 *
  Sphingomyelin (d18:2,C18:0): 0.24 *
  TAG No 02: 0.57 *
  myo-Inositol, lipid fraction: 0.24 *
m7, Table 14b
  Cholesterol: 0.22
  Choline plasmalogen No 02: 0.44
  Lignoceric acid (C24:0): 0.14
  Sphingomyelin (d18:1, C16:0): 0.23
  Sphingomyelin (d18:2, C16:0): 0.22
  erythro-Sphingosine (d18:1): 0.1
m14, male rats
  Mannose: 1.4 *
m14, male rats, Table 16
  3,4-Dihydroxyphenylacetic acid (DOPAC): 0.75 *
  3,4-Dihydroxyphenylglycol (DOPEG): 0.86 *
  Androstenedione: 0.02 *
  Citrate: 0.89 *
  Glycerol, polar fraction: 0.51 *
  Histamine: 1.6
  Ketoleucine: 0.85 *
  Lactate: 0.94
  Metanephrine: 0.48 *
  Pantothenic acid: 0.82 *
  Phosphatidylcholine (C18:1,C18:2): 0.74 *
  Phosphatidylcholine No 04: 0.42 *
  TAG (C18:1,C18:2): 0.45 *
  Testosterone: 0.06 *
  Tyrosine: 1
m14, male rats, Table 15d
  3,4-Dihydroxyphenylacetic acid (DOPAC): 0.75 *
  18-Hydroxy-11-deoxycorticosterone: 0.47 *
  Glycerol phosphate, lipid fraction: 0.24 *
  Homovanillic acid (HVA): 0.5 *
  Kynurenic acid: 0.8 *
  Lysophosphatidylcholine (C18:1): 0.82 *
  Lysophosphatidylethanolamine (C22:5): 0.83 *
  Phosphate, lipid fraction: 0.44 *
  Phosphatidylcholine (C18:0,C18:1): 0.63 *
  Sphingomyelin (d18:1, C16:0): 0.22 *
  Sphingomyelin (d18:1,C23:0): 0.33 *
  Sphingomyelin (d18:1,C24:0): 0.41 *
  Sphingomyelin (d18:2,C18:0): 0.26 *
  TAG No 02: 0.74 *
  myo-Inositol, lipid fraction: 0.29 *
m14, Table 14b
  Cholesterol: 0.22
  Choline plasmalogen No 02: 0.52
  Lignoceric acid (C24:0): 0.17
  Sphingomyelin (d18:1, C16:0): 0.22
  Sphingomyelin (d18:2, C16:0): 0.18
  erythro-Sphingosine (d18:1): 0.06
m28, male rats
  Mannose: 1.31 *
m28, male rats, Table 16
  3,4-Dihydroxyphenylacetic acid (DOPAC): 0.54 *
  3,4-Dihydroxyphenylglycol (DOPEG): 0.72 *
  Androstenedione: 0.02 *
  Citrate: 1.03
  Glycerol, polar fraction: 0.61 *
  Histamine: 0.65 *
  Ketoleucine: 0.72 *
  Lactate: 0.76 *
  Metanephrine: 0.66 *
  Pantothenic acid: 0.77 *
  Phosphatidylcholine (C18:1,C18:2): 0.96
  Phosphatidylcholine No 04: 0.81 *
  TAG (C18:1,C18:2): 1.26
  Testosterone: 0.06 *
  Tyrosine: 0.82 *
m28, male rats, Table 15d
  3,4-Dihydroxyphenylacetic acid (DOPAC): 0.54 *
  18-Hydroxy-11-deoxycorticosterone: 0.52 *
  Glycerol phosphate, lipid fraction: 0.61 *
  Homovanillic acid (HVA): 0.49 *
  Kynurenic acid: 0.72 *
  Lysophosphatidylcholine (C18:1): 0.92
  Lysophosphatidylethanolamine (C22:5): 0.8
  Phosphate, lipid fraction: 0.66 *
  Phosphatidylcholine (C18:0,C18:1): 0.87
  Sphingomyelin (d18:1, C16:0): 0.35 *
  Sphingomyelin (d18:1,C23:0): 0.55 *
  Sphingomyelin (d18:1,C24:0): 0.54 *
  Sphingomyelin (d18:2,C18:0): 0.35 *
  TAG No 02: 0.51 *
  myo-Inositol, lipid fraction: 0.54 *
m28, Table 14b
  Cholesterol: 0.4
  Choline plasmalogen No 02: 0.55
  Lignoceric acid (C24:0): 0.35
  Sphingomyelin (d18:1, C16:0): 0.35
  Sphingomyelin (d18:2, C16:0): 0.28
  erythro-Sphingosine (d18:1): 0.21

## C[C@@H]1CC2=CC(=O)CC[C@@H]2[C@H]2CC[C@@]3(C)[C@@H](CC[C@]3(C)O)[C@@H]21 [Mibolerone]
m7, male rats
  Glycochenodeoxycholic acid: 1.31
  Mannose: 1.41 *
m7, male rats, Table 15d
  3,4-Dihydroxyphenylacetic acid (DOPAC): 0.83 *
  18-Hydroxy-11-deoxycorticosterone: 0.83 *
  Glycerol phosphate, lipid fraction: 0.08 *
  Homovanillic acid (HVA): 0.5 *
  Kynurenic acid: 0.73 *
  Lysophosphatidylcholine (C18:1): 0.53 *
  Lysophosphatidylethanolamine (C22:5): 0.54 *
  Phosphate, lipid fraction: 0.32 *
  Phosphatidylcholine (C18:0,C18:1): 0.19 *
  Sphingomyelin (d18:1, C16:0): 0.12 *
  Sphingomyelin (d18:1,C23:0): 0.07 *
  Sphingomyelin (d18:1,C24:0): 0.1 *
  Sphingomyelin (d18:2,C18:0): 0.17 *
  TAG No 02: 0.34 *
  Taurocholic acid: 1.11
  myo-Inositol, lipid fraction: 0.08 *
m14, male rats
  Glycochenodeoxycholic acid: 2.14 *
  Mannose: 1.08 *
m14, male rats, Table 15d
  3,4-Dihydroxyphenylacetic acid (DOPAC): 0.96
  18-Hydroxy-11-deoxycorticosterone: 0.93
  Glycerol phosphate, lipid fraction: 0.35 *
  Homovanillic acid (HVA): 0.69 *
  Kynurenic acid: 0.5
  Lysophosphatidylcholine (C18:1): 0.81 *
  Lysophosphatidylethanolamine (C22:5): 0.87
  Phosphate, lipid fraction: 0.62 *
  Phosphatidylcholine (C18:0,C18:1): 0.61 *
  Sphingomyelin (d18:1, C16:0): 0.37 *
  Sphingomyelin (d18:1,C23:0): 0.53 *
  Sphingomyelin (d18:1,C24:0): 0.63 *
  Sphingomyelin (d18:2,C18:0): 0.3 *
  TAG No 02: 0.24 *
  Taurocholic acid: 0.62 *
  myo-Inositol, lipid fraction: 0.29 *
m28, male rats
  Glycochenodeoxycholic acid: 5.73 *
  Mannose: 1.07 *
m28, male rats, Table 15d
  3,4-Dihydroxyphenylacetic acid (DOPAC): 0.79 *
  18-Hydroxy-11-deoxycorticosterone: 0.63 *
  Glycerol phosphate, lipid fraction: 0.7
  Homovanillic acid (HVA): 0.6 *
  Kynurenic acid: 0.54 *
  Lysophosphatidylcholine (C18:1): 0.91 *
  Lysophosphatidylethanolamine (C22:5): 0.85 *
  Phosphate, lipid fraction: 0.81 *
  Phosphatidylcholine (C18:0,C18:1): 1.1
  Sphingomyelin (d18:1, C16:0): 0.51 *
  Sphingomyelin (d18:1,C23:0): 1.09
  Sphingomyelin (d18:1,C24:0): 1.01
  Sphingomyelin (d18:2,C18:0): 0.33 *
  TAG No 02: 0.23 *
  Taurocholic acid: 0.75 *
  myo-Inositol, lipid fraction: 0.5 *
Day 7
  Alanine, ratio versus control: 0.72 *
  Androstenedione, ratio versus control: 0.05 *
  Glycine, ratio versus control: 0.86 *
  Heptadecanoic acid (C17:0), ratio versus control: 0.37 *
  Testosterone, ratio versus control: 0.07 *
  Threonine, ratio versus control: 0.76 *
  Uric acid, ratio versus control: 0.66 *
  alpha-Tocopherol, ratio versus control: 0.07 *
Day 14
  Alanine, ratio versus control: 0.93 *
  Androstenedione, ratio versus control: 0.96^
  Cholesterol, ratio versus control: 0.27 *
  Glycine, ratio versus control: 0.86^
  Heptadecanoic acid (C17:0), ratio versus control: 0.57 *
  Testosterone, ratio versus control: 0.68 *
  Threonine, ratio versus control: 1.02^
  Uric acid, ratio versus control: 0.7 *
  alpha-Tocopherol, ratio versus control: 0.33 *
Day 28
  Alanine, ratio versus control: 1.14^
  Androstenedione, ratio versus control: 0.46 *
  Cholesterol, ratio versus control: 0.52 *
  Glycine, ratio versus control: 0.72 *
  Heptadecanoic acid (C17:0), ratio versus control: 0.82 *
  Testosterone, ratio versus control: 0.26 *
  Threonine, ratio versus control: 1.04^
  Uric acid, ratio versus control: 0.5 *
  alpha-Tocopherol, ratio versus control: 0.64 *
